Source: patent US12312327B2, “Crystal of 1,3,5-triazine derivative or solvate thereof and method for producing same” (Shionogi & Co., Ltd., priority 2019, dated 2025)

Key:
[1] = Flowability test (Compressibility index and Hausner ratio); assay type: physicochemical; conditions: for Compressibility index (%): (V0−Vf)/V0×100; for Hausner ratio: V0/Vf; for V0 (mL), loose bulk volume: about 10 g sample in 50 mL measuring cylinder, no compaction; for V0 (mL), loose bulk volume / Vf (mL), final tap volume: average of three; for Vf (mL), final tap volume: about 10 g sample, tapped until volume difference <= 0.5 mL
Experimental: 1) About 10 g of a sample was gently put into a 50 mL measuring cylinder, and the sample amount was measured.
2) The upper surface of the powder layer was carefully leveled without compaction, and the loose bulk volume (V0) was read.
3) The measuring cylinder was mounted on a support stand of a powder tester (PT-X type, Hosokawa Micron Corporation).
4) The powder sample was tapped 10 times, 500 times, 1250 times, 2500 times and the corresponding bulk volumes (V10, V500, V1250, V2500) were read.
5) The process was ended when the volume difference was equal to or less than the minimum scale (0.5 mL), and the final bulk volume was defined as the final tap volume (Vf).
6) The steps 1) to 5) were repeated three times and measured, and the average values were adopted for calculation of the Compressibility index and the Hausner ratio.
Compressibility index=(V0−Vf)/V0×100 Hausner ratio=V0/Vf

[2] = Solid stability test (80° C. hermetically sealed, one week, HPLC Method D); assay type: physicochemical; conditions: for Residual ratio (%): sealed storage, content by HPLC; for Types of analogous substances generated: 80° C. hermetically sealed, one week
Experimental: Column: Cadenza CD-C18, φ 3.0×150 mm, 3 μm
Flow rate: 0.55 mL per minute
UV detection wavelength: 262 nm
Mobile phase A: 0.1% TFA aqueous solution
Mobile phase B: Acetonitrile
5 mg sample (n=4) was precisely weighed in 2 mL vial, capped, and stored at a predetermined temperature (sealed storage). Then, each sample was taken out after storage for a predetermined period, and stability (content) was evaluated.
80° C. hermetically sealed
Each vial was washed out into a 25 mL volumetric flask.
Diluting medium: acetonitrile/water=1/1

Row | Compressibility index (%) [1] | Hausner ratio [1] | V0 (mL), loose bulk volume [1] | Vf (mL), final tap volume [1] | Peak area (%) of analogous substance, retention time 15.5 min ([2]; 80° C. 1W) | Purity (%) ([2]; 80° C. 1W) | Residual ratio (%) ([2]; 80° C. 1W) | Types of analogous substances generated [2] | Peak area (%) of analogous substance, retention time 15.5 min ([2]; Initial) | Purity (%) ([2]; Initial) | Peak area (%) of analogous substance, retention time 3 min ([2]; 80° C. 1W) | Structure (SMILES) | also measured
1 | 25.4% | 1.3 | 19.0 mL | 14.2 mL | 0.16% | 99.77% | 99.79% | three types | 0.16% | 99.76% | – | C[C@@H](Cn1c(=O)[nH]/c(=N\c2ccc(Oc3ccccn3)cc2)n(Cc2ccc(Cl)cc2)c1=O)C(=O)O [Anhydrous crystal Form I of compound represented by Formula ] | Flowability compared with the other crystal forms ([1]; from Compressibility index, Table 15): better flowability as compared with the other two crystal forms; Peak area (%) of analogous substance, retention time 17.1 min ([2]; 80° C. 1W): 0.04%; Peak area (%) of analogous substance, retention time 20.6 min ([2]; 80° C. 1W): 0.03%; Peak area (%) of analogous substance, retention time 17.1 min ([2]; Initial): 0.05%; Peak area (%) of analogous substance, retention time 20.6 min ([2]; Initial): 0.03%
2 | 35.9% | 1.6 | 30.7 mL | 19.7 mL | 0.09% | 99.86% | 99.13% | two types | 0.09% | 99.91% | 0.05% | C[C@@H](Cn1c(=O)[nH]/c(=N\c2ccc(Oc3ccccn3)cc2)n(Cc2ccc(Cl)cc2)c1=O)C(=O)O [Dihydrate crystal of compound represented by Formula (I)] | –
3 | 36.7% | 1.6 | 36.8 mL | 23.3 mL | – | 99.71% | 99.03% | five types | – | 99.71% | 0.06% | C[C@@H](Cn1c(=O)[nH]/c(=N\c2ccc(Oc3ccccn3)cc2)n(Cc2ccc(Cl)cc2)c1=O)C(=O)O [Ethyl acetate/hexane solvate crystal of compound represented] [reference compound] | Peak area (%) of analogous substance, retention time 5.8 min ([2]; 80° C. 1W): 0.01%; Peak area (%) of analogous substance, retention time 10.5 min ([2]; 80° C. 1W): 0.14%; Peak area (%) of analogous substance, retention time 14 min ([2]; 80° C. 1W): 0.04%; Peak area (%) of analogous substance, retention time 16.9 min ([2]; 80° C. 1W): 0.03%; Peak area (%) of analogous substance, retention time 3 min ([2]; Initial): 0.06%; Peak area (%) of analogous substance, retention time 5.8 min ([2]; Initial): 0.01%; Peak area (%) of analogous substance, retention time 10.5 min ([2]; Initial): 0.15%; Peak area (%) of analogous substance, retention time 14 min ([2]; Initial): 0.04%; Peak area (%) of analogous substance, retention time 16.9 min ([2]; Initial): 0.04%
